The results in this text go back to patent publication US6555565B2, “Apoptosis inhibitor” (Takeda Chemical Industries, Ltd., priority 1997, dated 2003).

This assay deals with mouse fibroblast (L929 cells, IFO 50409). The assay can be described thus: TNF-α-induced apoptosis (cell death) of L929 cells, crystal violet staining of living cells. The conditions noted are these: test compound final concentration 1 μM, 72 hours cultivation, relative to dexamethasone (final concentration 1.1 μM) = 100. It counts as cell-based. Here is the method:
Apoptosis (cell death) was induced by adding TNF-α to cells. The inhibitory activity of a test compound to this apoptosis was determined by using known dexamethasone having an apoptosis inhibitory activity as the standard.
Namely, 25 μl of a culture medium (PRMI-1640, produced by Nikken Seibutsu Igaku Kenkyusho, Japan) (containing 10 weight % of fetal bovine serum) was added to each well of a 96-well microplate. Then, added was 2 μl of a solution prepared by 20 volume fold dilution of dimethylformamide (in the case of Compound No. 16) or dimethylsulfoxide (in the case of Compound Nos. 2, 4, 6, 8, 13) solution of a test compound (concentration of the test compound: 1 mM) with the above culture medium.
Subsequently, 25 μl of a solution prepared by dissolving TNF-α (Genzyme, USA)(40 ng/ml culture medium) in the above culture medium, and 50 μl of a suspension (2×10^5 cells/ml) prepared by suspending mouse fibroblast (L929 cells, IFO 50409) in the above culture medium were added, and then cells were cultivated for 72 hours at 37° C. in the presence of 5% carbon dioxide in air. The final concentration of the test compound during cultivation was 1 μM.
After cultivation, the culture medium was removed from the wells by aspiration, and 50 μl of a 5% (w/v) crystal violet/70% (v/v) methanol solution was added to each well to pigment the living cells. Then the wells were washed and dried. The apoptosis inhibitory activity of the test compound was obtained by determining the optical density by using an absorptiometer [Microplate Reader Model 450, produced by Bio-Rad] at the wavelength of 570 nm.
While, the apoptosis inhibitory activity of dexamethasone was obtained in the same manner as above except that the above test compound (final concentration: 1 μM) was replaced by dexamethasone (final concentration: 1.1 μM).
Then, the apoptosis inhibitory activity of each test compounds (final concentration: 1 μM) was calculated when the apoptosis inhibitory activity of dexamethasone (final concentration: 1.1 μM) was 100.

For `Cn1nc(CCOc2ccc(CC3SC(=O)NC3=O)cc2)nc1-c1ccccc1` (stereo not drawn) [Compound No. 8, 5-[4-[2-(1-methyl-5-phenyl-1,2,4-triazol-3-yl)ethoxy]benzyl]-2,4-thiazolidinedione], the “Apoptosis inhibitory activity (%)” value was 70%.

In the case of `Cc1oc(-c2ccccc2)nc1COc1ccc(CCCC2OC(=O)NC2=O)cc1` (stereo not drawn) [Compound No. 6, 5-[3-[4-(5-methyl-2-phenyl-4-oxazolylmethoxy]phenyl]propyl]-2,4-oxazolidinedione], the “Apoptosis inhibitory activity (%)” value came to 70%.

`COc1cc(CCCC2OC(=O)NC2=O)ccc1OCc1nc(-c2ccco2)oc1C` (stereo not drawn) [Compound No. 4, 5-[3-[4-[2-(2-furyl)-5-methyl-4-oxazoly]methoxy]-3-methoxyphenyllpropyl]-2,4-oxazolidinedione]: the “Apoptosis inhibitory activity (%)” value came to 74%.

In the case of `CN(CCOc1ccc(CC2SC(=O)NC2=O)cc1)c1ccccn1` (stereo not drawn) [Compound No. 13, 5-[[4-[2-(methyl-2-pyridylamino)ethoxy]phenyl]methyl]-2,4-thiazolidinedione, reference compound], the “Apoptosis inhibitory activity (%)” value was 92%.

As to `COc1cc(CCCC2OC(=O)NC2=O)ccc1OC(C)c1nc(-c2ccccc2)oc1C` (stereo not drawn) [Compound No. 16, 5-[3-[3-methoxy-4-[1-(5-methyl-2-phenyl-4-oxazolyl)ethoxy]phenyl]propyl]-2,4-oxazolidinedione], the “Apoptosis inhibitory activity (%)” value is 71%.

As for `Cc1oc(-c2ccc3ccccc3c2)nc1CCOc1ccc(CCCC2OC(=O)NC2=O)cc1` (stereo not drawn) [Compound No. 2], the “Apoptosis inhibitory activity (%)” value was determined as 70%.
